Drawing on PubChem BioAssay (NCI), this text covers TGI and GI50 for 21 compounds.

Where “and” joins values, the source holds several entries; their conditions need not be identical. Identical values can stand only once.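 Growth conditions: 96-well plates. Treatment: test compound, 48 hours, 5 concentrations. Analysis: linear interpolation between bracketing concentrations; unreached endpoints set to highest concentration. GI50 is the concentration that inhibits growth by half. TGI marks complete inhibition of growth.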

Test systems include A549 NSCLC; MCF7 breast; SK-OV-3 ovarian; MALME-3M melanoma; RPMI-8226 leukemia; A498 renal; ACHN renal; NCI-H23 lung; SK-MEL-2 melanoma; HS 578T breast.
Common to all, as to assay: growth of human tumour cells (NCI), 48 h

For the compound `CCOc1ccc2nc(-c3ccc(O)cc3)sc2c1`, the TGI is over 100 µM with A549 NSCLC; over 100 µM in the experiment on MCF7 breast; 94.3 µM in the experiment with SK-OV-3 ovarian; over 100 µM with MALME-3M melanoma; 2.63 µM in the experiment on RPMI-8226 leukemia; over 100 µM in the experiment on A498 renal. Moreover, the TGI with ACHN renal, with NCI-H23 lung and with SK-MEL-2 melanoma was over 100 µM in each case.

For the compound `O=C1OC(c2ccccc2)=N/C1=C\c1cccnc1`, the TGI in the experiment with A549 NSCLC, with MCF7 breast, in the experiment with SK-OV-3 ovarian, in the experiment on RPMI-8226 leukemia, with ACHN renal and in the experiment on NCI-H23 lung was over 100 µM each time. Further, the TGI with SK-MEL-2 melanoma and with HS 578T breast was over 100 µM throughout.

As to `C/C(CC/C(C)=N/O)=N\O`, the TGI with A549 NSCLC, in the experiment with MCF7 breast, in the experiment on SK-OV-3 ovarian, with MALME-3M melanoma, with RPMI-8226 leukemia and in the experiment with A498 renal was over 100 µM each time. Besides, the TGI with ACHN renal, with NCI-H23 lung, with SK-MEL-2 melanoma and in the experiment on HS 578T breast was over 100 µM in each case.

On to `CS(=O)(=O)c1ccc(/C=N/NC(N)=S)cc1`, for which the TGI with A549 NSCLC, in the experiment on MCF7 breast, with SK-OV-3 ovarian, in the experiment with MALME-3M melanoma, in the experiment on RPMI-8226 leukemia and in the experiment on A498 renal was over 100 µM each time. The TGI with ACHN renal, in the experiment on NCI-H23 lung and with HS 578T breast was over 100 µM in each case.

In the case of `O=C1OC[C@@H]2[C@@H](O)CCCCCN12`, the TGI in the experiment on A549 NSCLC, with MCF7 breast, with SK-OV-3 ovarian, with RPMI-8226 leukemia, in the experiment on A498 renal and in the experiment on ACHN renal was over 100 µM throughout. Besides, the TGI in the experiment with SK-MEL-2 melanoma and in the experiment with HS 578T breast was over 100 µM in each case.

Turning to `COc1cc2c(cc1OC)-c1cc3ccccc3c[n+]1CC2`, the TGI with A549 NSCLC was over 100 µM; with MCF7 breast it was over 100 µM; with SK-OV-3 ovarian it was over 100 µM; with MALME-3M melanoma, 54.3 µM; in the experiment with RPMI-8226 leukemia, over 100 µM; in the experiment with ACHN renal it was over 100 µM. For the same compound, the TGI in the experiment with NCI-H23 lung was over 100 µM; in the experiment with SK-MEL-2 melanoma it was over 100 µM; in the experiment with HS 578T breast, 94.7 µM.

Take `CCS(=O)(=O)N1CCC(C(C)n2c(C)c(C(=O)NCc3c(OC)cc(C)[nH]c3=O)c3ccccc32)CC1` (stereo not given): the GI50 was over 100 µM in the experiment with A549 NSCLC; 25.8 µM in the experiment with MCF7 breast; over 100 µM in the experiment with SK-OV-3 ovarian; over 100 µM in the experiment on A498 renal; over 100 µM in the experiment on ACHN renal; over 100 µM with NCI-H23 lung. Moreover, the GI50 in the experiment with SK-MEL-2 melanoma and with HS 578T breast was over 100 µM each time. The TGI in the experiment on A549 NSCLC, in the experiment on MCF7 breast, in the experiment on SK-OV-3 ovarian, with A498 renal, with ACHN renal and with NCI-H23 lung was over 100 µM throughout. Besides, the TGI in the experiment on SK-MEL-2 melanoma and with HS 578T breast was over 100 µM in each case.

As for `COC1=C2CC(C)CC(OC)C(O)C(C)/C=C(\C)C(OC(N)=O)C(OC)/C=C\C=C(/C)C(=O)NC(=C(C=NC(C)(C)C)C1=O)C2=O` (stereo not given), the TGI stood at 37.5 µM in the experiment on A549 NSCLC; 35.7 µM in the experiment with MCF7 breast; 67.3 µM with SK-OV-3 ovarian; 5.23 µM with MALME-3M melanoma; 13.5 µM in the experiment on RPMI-8226 leukemia; 23.6 µM with A498 renal. Besides, the TGI was found to be 5.17 µM with NCI-H23 lung and 12.3 µM with SK-MEL-2 melanoma.

Take `CC[C@]1(O)C[C@H]2CN(CCc3c([nH]c4ccccc34)[C@@](C(=O)OC)(c3cc4c(cc3OC)N(C=O)[C@H]3[C@@](O)(C(=O)OC)[C@H](OC(C)=O)[C@]5(CC)C=CCN6CC[C@]43[C@@H]65)C2)C1`: the TGI in the experiment on MALME-3M melanoma is 6.23 µM and 32 µM and 58.1 µM. Also, the GI50 with A498 renal was 0.00192 µM; in the experiment on ACHN renal it was 0.00846 µM; with NCI-H23 lung, under 0.001 µM.

In the case of `Cc1ccccc1C(=O)c1c(O)c2c(c(O)c1Br)CCCC2`, the TGI turned out to be 54.1 µM with A549 NSCLC; 43.6 µM in the experiment with SK-OV-3 ovarian; 24.7 µM in the experiment with MALME-3M melanoma; 57.5 µM in the experiment with RPMI-8226 leukemia; 43.7 µM in the experiment with A498 renal; 31.9 µM in the experiment on ACHN renal. For the same compound, the TGI with NCI-H23 lung worked out at 58.4 µM; with SK-MEL-2 melanoma, 31.3 µM.

With `O=[N+]([O-])c1nc(-c2ccccn2)[nH]c1[N+](=O)[O-]`, the TGI with A549 NSCLC, with SK-OV-3 ovarian, in the experiment with MALME-3M melanoma, in the experiment with RPMI-8226 leukemia, in the experiment on A498 renal and in the experiment with ACHN renal was over 100 µM throughout. Further, the TGI in the experiment with NCI-H23 lung and with SK-MEL-2 melanoma was over 100 µM throughout.

With `CCOC(=O)NC(Nc1ncccn1)(C(F)(F)F)C(F)(F)F`, the TGI in the experiment with MCF7 breast, with SK-OV-3 ovarian, in the experiment on MALME-3M melanoma, in the experiment on RPMI-8226 leukemia, in the experiment with A498 renal and in the experiment with ACHN renal was over 100 µM throughout. The TGI in the experiment with NCI-H23 lung, in the experiment with SK-MEL-2 melanoma and in the experiment on HS 578T breast was over 100 µM each time.

Turning to `NC(=O)c1nnc2ccc(F)cc2c1N`, the TGI in the experiment on A549 NSCLC, in the experiment on MCF7 breast, in the experiment with SK-OV-3 ovarian, in the experiment on MALME-3M melanoma, with RPMI-8226 leukemia and in the experiment on A498 renal was over 100 µM in each case. Moreover, the TGI in the experiment with ACHN renal, in the experiment with NCI-H23 lung, with SK-MEL-2 melanoma and with HS 578T breast was over 100 µM throughout.

Take `Nc1ncnc2c1ncn2C1OC(COP(=O)(O)O)C(O)C1O` (stereo not given): the TGI with A549 NSCLC, with MCF7 breast, with SK-OV-3 ovarian, with MALME-3M melanoma, with RPMI-8226 leukemia and in the experiment on A498 renal was over 50 µM throughout. The TGI in the experiment on NCI-H23 lung and in the experiment on SK-MEL-2 melanoma was over 50 µM throughout.

Turning to `CC1(C)CCC[C@@]2(C)C1CCC1(C)C(CCc3ccoc3)/C(=C/OS(=O)(=O)O)CCC12` (stereo not given in full) (tested in a mixture with another compound), the TGI in the experiment with A549 NSCLC, in the experiment with SK-OV-3 ovarian, in the experiment with MALME-3M melanoma, in the experiment on RPMI-8226 leukemia, in the experiment with A498 renal and in the experiment with ACHN renal was over 100 µM each time. The TGI with NCI-H23 lung and in the experiment on SK-MEL-2 melanoma was over 100 µM each time.

As for `C/C=C/[C@H]1O[C@@](O)([C@@H](C)[C@H](O)[C@H](C)[C@H]2OC(=O)/C(OC)=C/C(C)=C/[C@@H](C)[C@@H](O)[C@@H](CC)[C@@H](O)[C@H](C)C/C(C)=C/C=C/[C@@H]2OC)C[C@H](OC2CC(O)C(O)C(C)O2)[C@@H]1C` (stereo not given in full), the TGI was 12.3 µM with A549 NSCLC; 8.58 µM with MCF7 breast; 16.9 µM in the experiment with SK-OV-3 ovarian; 0.907 µM with MALME-3M melanoma; under 0.0075 µM in the experiment with RPMI-8226 leukemia; 12.2 µM with A498 renal. For the same compound, the TGI in the experiment on ACHN renal came to 12.8 µM; in the experiment on NCI-H23 lung, 17.5 µM; in the experiment on HS 578T breast it was 17.3 µM.

Turning to `C=C(CN(C)C)C(=O)c1ccccc1C`, the TGI in the experiment with A549 NSCLC is over 100 µM; in the experiment on SK-OV-3 ovarian, over 100 µM; in the experiment on MALME-3M melanoma, 36 µM; with RPMI-8226 leukemia, 48.6 µM; in the experiment on A498 renal, over 100 µM; in the experiment with ACHN renal it was 57.6 µM. For the same compound, the TGI in the experiment with NCI-H23 lung and in the experiment with SK-MEL-2 melanoma was over 100 µM each time.

For the compound `O=C(Nc1cccc(-n2ccc3c(NC(=O)c4ccccc4)nccc32)c1)c1ccc(N2CCOCC2)c(C(F)(F)F)c1`, the GI50 with A549 NSCLC was 0.0513 µM; in the experiment on MCF7 breast it was 0.0397 µM; with SK-OV-3 ovarian, 0.0326 µM; in the experiment with RPMI-8226 leukemia, 0.0545 µM; with A498 renal it was 0.0357 µM; with ACHN renal it was 0.0853 µM. Moreover, the GI50 with NCI-H23 lung was 0.0679 µM; in the experiment on SK-MEL-2 melanoma, 0.253 µM; with HS 578T breast, 0.272 µM. In addition, the TGI is over 100 µM with A549 NSCLC; over 73.5 µM with MCF7 breast; 2.66 µM in the experiment on SK-OV-3 ovarian; 13.1 µM in the experiment on RPMI-8226 leukemia; 4.72 µM in the experiment on A498 renal; over 63.5 µM in the experiment on ACHN renal. In addition, the values for the TGI in the experiment on NCI-H23 lung, in the experiment on SK-MEL-2 melanoma and in the experiment on HS 578T breast were over 90.1 µM, 20.1 µM and 98.6 µM, respectively.

Regarding `O=C(O)c1cc2ccccc2c(N=Nc2ccccc2)c1O`, the TGI is 40.1 µM in the experiment with A549 NSCLC; over 100 µM in the experiment on SK-OV-3 ovarian; 26.6 µM with MALME-3M melanoma; over 100 µM in the experiment on RPMI-8226 leukemia; over 100 µM in the experiment with A498 renal; 69.5 µM in the experiment with ACHN renal. In addition, the TGI was 56.1 µM with NCI-H23 lung and over 100 µM with HS 578T breast.

As for `O=C(O)c1ccccc1NC(c1ccccc1)c1ccc2cccnc2c1O` (stereo not given), the TGI was over 100 µM in the experiment on A549 NSCLC; over 62.4 µM with MCF7 breast; over 100 µM with SK-OV-3 ovarian; over 56.4 µM in the experiment on MALME-3M melanoma; 16.9 µM in the experiment on RPMI-8226 leukemia; over 100 µM in the experiment on A498 renal. The TGI in the experiment with ACHN renal is over 100 µM; in the experiment with NCI-H23 lung, over 53 µM; in the experiment with SK-MEL-2 melanoma, over 100 µM; in the experiment on HS 578T breast, over 68.1 µM.

With `Fc1ccc2[nH]cc(-c3nc(-c4c[nH]c5ncccc45)cs3)c2c1`, the GI50 with A549 NSCLC was 2.65 µM; with MCF7 breast, 3.04 µM; with A498 renal, 2.07 µM; in the experiment on SK-MEL-2 melanoma it was over 100 µM; with HS 578T breast, 3.15 µM. Moreover, the TGI in the experiment on A549 NSCLC, in the experiment on MCF7 breast, in the experiment on A498 renal, with SK-MEL-2 melanoma and in the experiment with HS 578T breast was over 100 µM each time.
